Measurements reported in the NIST ThermoML archive (doi:10.1016/j.fluid.2014.04.027).
Numbers after ± are expanded uncertainties.

Test: xn = mol fraction of the nth substance listed
Conditions: 100 kPa, Liquid, Alternating current cell with electrodes

Compound: CCCCCCCCCCCCOS(=O)(=O)[O-].[Na+] [sodium dodecyl sulfate] + O
- electrical conductivity (298.15 K, x1 = 6.348e-05): 0.024 ± 0.00096 S/m
- electrical conductivity (298.15 K, x1 = 6.643e-05): 0.0245 ± 0.00098 S/m
- electrical conductivity (298.15 K, x1 = 6.967e-05): 0.0252 ± 0.001 S/m
- electrical conductivity (298.15 K, x1 = 7.324e-05): 0.0261 ± 0.001 S/m
- electrical conductivity (298.15 K, x1 = 7.72e-05): 0.0269 ± 0.0011 S/m
- electrical conductivity (298.15 K, x1 = 8.16e-05): 0.0278 ± 0.0011 S/m
- electrical conductivity (298.15 K, x1 = 8.4e-05): 0.0284 ± 0.0011 S/m
- electrical conductivity (298.15 K, x1 = 8.655e-05): 0.0291 ± 0.0012 S/m
- electrical conductivity (298.15 K, x1 = 8.925e-05): 0.0297 ± 0.0012 S/m
- electrical conductivity (298.15 K, x1 = 9.213e-05): 0.0305 ± 0.0012 S/m
- electrical conductivity (298.15 K, x1 = 9.519e-05): 0.0311 ± 0.0012 S/m
- electrical conductivity (298.15 K, x1 = 9.847e-05): 0.0317 ± 0.0013 S/m
- electrical conductivity (298.15 K, x1 = 0.000102): 0.0327 ± 0.0013 S/m
- electrical conductivity (298.15 K, x1 = 0.0001058): 0.0335 ± 0.0013 S/m
- electrical conductivity (298.15 K, x1 = 0.0001098): 0.0345 ± 0.0014 S/m
- electrical conductivity (298.15 K, x1 = 0.0001142): 0.0353 ± 0.0014 S/m
- electrical conductivity (298.15 K, x1 = 0.000119): 0.0365 ± 0.0015 S/m
- electrical conductivity (298.15 K, x1 = 0.0001241): 0.0375 ± 0.0015 S/m
- electrical conductivity (298.15 K, x1 = 0.0001298): 0.0388 ± 0.0015 S/m
- electrical conductivity (298.15 K, x1 = 0.0001359): 0.0401 ± 0.0016 S/m
- electrical conductivity (298.15 K, x1 = 0.0001427): 0.0414 ± 0.0017 S/m
- electrical conductivity (308.15 K, x1 = 6.348e-05): 0.0249 ± 0.001 S/m
- electrical conductivity (308.15 K, x1 = 6.643e-05): 0.0255 ± 0.001 S/m
- electrical conductivity (308.15 K, x1 = 6.967e-05): 0.0264 ± 0.0011 S/m
- electrical conductivity (308.15 K, x1 = 7.324e-05): 0.0273 ± 0.0011 S/m
- electrical conductivity (308.15 K, x1 = 7.72e-05): 0.0282 ± 0.0011 S/m
- electrical conductivity (308.15 K, x1 = 8.16e-05): 0.0292 ± 0.0012 S/m
- electrical conductivity (308.15 K, x1 = 8.4e-05): 0.0298 ± 0.0012 S/m
- electrical conductivity (308.15 K, x1 = 8.655e-05): 0.0304 ± 0.0012 S/m
- electrical conductivity (308.15 K, x1 = 8.925e-05): 0.0311 ± 0.0012 S/m
- electrical conductivity (308.15 K, x1 = 9.213e-05): 0.0317 ± 0.0013 S/m
- electrical conductivity (308.15 K, x1 = 9.519e-05): 0.0323 ± 0.0013 S/m
- electrical conductivity (308.15 K, x1 = 9.847e-05): 0.0332 ± 0.0013 S/m
- electrical conductivity (308.15 K, x1 = 0.000102): 0.0339 ± 0.0014 S/m
- electrical conductivity (308.15 K, x1 = 0.0001058): 0.0349 ± 0.0014 S/m
- electrical conductivity (308.15 K, x1 = 0.0001098): 0.0359 ± 0.0014 S/m
- electrical conductivity (308.15 K, x1 = 0.0001142): 0.037 ± 0.0015 S/m
- electrical conductivity (308.15 K, x1 = 0.000119): 0.0382 ± 0.0015 S/m
- electrical conductivity (308.15 K, x1 = 0.0001241): 0.0394 ± 0.0016 S/m
- electrical conductivity (308.15 K, x1 = 0.0001298): 0.0408 ± 0.0016 S/m
- electrical conductivity (308.15 K, x1 = 0.0001359): 0.0423 ± 0.0017 S/m
- electrical conductivity (308.15 K, x1 = 0.0001427): 0.0439 ± 0.0018 S/m
- electrical conductivity (308.15 K, x1 = 0.0001502): 0.0455 ± 0.0018 S/m
- electrical conductivity (318.15 K, x1 = 6.348e-05): 0.0283 ± 0.0011 S/m
- electrical conductivity (318.15 K, x1 = 6.643e-05): 0.029 ± 0.0012 S/m
- electrical conductivity (318.15 K, x1 = 6.967e-05): 0.0298 ± 0.0012 S/m
- electrical conductivity (318.15 K, x1 = 7.324e-05): 0.0306 ± 0.0012 S/m
- electrical conductivity (318.15 K, x1 = 7.72e-05): 0.0317 ± 0.0013 S/m
- electrical conductivity (318.15 K, x1 = 8.16e-05): 0.0329 ± 0.0013 S/m
- electrical conductivity (318.15 K, x1 = 8.4e-05): 0.0334 ± 0.0013 S/m
- electrical conductivity (318.15 K, x1 = 8.655e-05): 0.034 ± 0.0014 S/m
- electrical conductivity (318.15 K, x1 = 8.925e-05): 0.0347 ± 0.0014 S/m
- electrical conductivity (318.15 K, x1 = 9.213e-05): 0.0355 ± 0.0014 S/m
- electrical conductivity (318.15 K, x1 = 9.519e-05): 0.0362 ± 0.0014 S/m
- electrical conductivity (318.15 K, x1 = 9.847e-05): 0.0371 ± 0.0015 S/m
- electrical conductivity (318.15 K, x1 = 0.000102): 0.038 ± 0.0015 S/m
- electrical conductivity (318.15 K, x1 = 0.0001058): 0.0389 ± 0.0016 S/m
- electrical conductivity (318.15 K, x1 = 0.0001098): 0.04 ± 0.0016 S/m
- electrical conductivity (318.15 K, x1 = 0.0001142): 0.0412 ± 0.0016 S/m
- electrical conductivity (318.15 K, x1 = 0.000119): 0.0424 ± 0.0017 S/m
- electrical conductivity (318.15 K, x1 = 0.0001241): 0.0436 ± 0.0018 S/m
- electrical conductivity (318.15 K, x1 = 0.0001298): 0.045 ± 0.0018 S/m
- electrical conductivity (318.15 K, x1 = 0.0001359): 0.0465 ± 0.0019 S/m
- electrical conductivity (318.15 K, x1 = 0.0001427): 0.0481 ± 0.0019 S/m
- electrical conductivity (318.15 K, x1 = 0.0001502): 0.0498 ± 0.002 S/m
- electrical conductivity (318.15 K, x1 = 0.0001586): 0.052 ± 0.0021 S/m
